ChEMBL document CHEMBL1148936, “Benzoic acid derivatives from Piper species and their fungitoxic activity against Cladosporium cladosporioides and C. sphaerospermum” (2004)
The source made the active and inactive calls. The rule behind the calls is not given here.

Key:
[1] = system: Cladosporium cladosporioides; assay: Antifungal activity against Cladosporium cladosporioides assessed as minimum concentration required to inhibit growth after 72 hrs by TLC; format: functional
[2] = system: Cladosporium sphaerospermum; assay: Antifungal activity against Cladosporium sphaerospermum assessed as minimum concentration required to inhibit growth after 72 hrs by TLC; format: functional
[3] = system: Cladosporium cladosporioides; assay: Antifungal activity against Cladosporium cladosporioides at 100 ug after 72 hrs by TLC; format: functional, organism-based
[4] = system: Cladosporium sphaerospermum; assay: Antifungal activity against Cladosporium sphaerospermum at 100 ug after 72 hrs by TLC; format: functional, organism-based

| Molecule | Activity [1] [µg] | Activity [2] [µg] | Activity [3] | Activity [4] |
| --- | --- | --- | --- | --- |
| COC(=O)c1ccc(O)c(CC=C(C)C)c1 | 1 | 1 | – | – |
| COC(=O)c1cc(C(=O)C=C(C)C)ccc1OC [ADUNCUMENE] | 5 | 5 | – | – |
| COc1cc(CCC(=O)O)cc(OC)c1OC | 10 | 10 | – | – |
| CC(C)=CCC/C(C)=C/Cc1cc(C(=O)O)ccc1O | 5 | 5 | – | – |
| COC(=O)c1ccc2c(c1)C=CC(C)(C)O2 | 5 | 5 | – | – |
| CC(C)=CCC[C@@]1(C)C=Cc2cc(C(=O)O)cc(CC=C(C)C)c2O1 | 10 | 10 | – | – |
| COC(=O)c1cc2c(c(CC=C(C)C)c1)OC(C)(C)C=C2 | 0.1 | 0.1 | – | – |
| NYSTATIN | 1 | 1 | – | – |
| O=C1C[C@@H](c2ccccc2)Oc2cc(O)cc(O)c21 [PINOCEMBRIN] | 1 | 1 | – | – |
| C=C(C)C(O)Cc1cc(C(=O)OC)ccc1O (configuration not stated) | 5 | 5 | – | – |
| COC(=O)c1cc(O)c2c(c1)C=CC(C)(C)O2 | 5 | 5 | – | – |
| COc1ccc(C(=O)O)cc1C/C=C(\C)CCC=C(C)C | – | – | inactive | inactive |
| COc1cc(O)c(C(=O)CCc2ccccc2)c(O)c1 | – | – | inactive | inactive |
| COC(=O)c1ccc(O)c([C@@H]2c3c(OC)cc(O)c(C(=O)CCc4ccccc4)c3O[C@H]2C(C)(C)O)c1 | – | – | inactive | inactive |
| COC(=O)c1ccc(O)c(CC(O)C(C)(C)O)c1 (configuration not stated) [HOSTMANIANE] | 0.5 | 0.5 | – | – |
| CC1(C)C=Cc2cc(C(=O)O)ccc2O1 | 5 | 5 | – | – |
| COC(=O)c1ccc(O)c(C(=O)C=C(C)C)c1 | – | – | inactive | inactive |
| CC(C)=CCC/C(C)=C/C(=O)c1cc(O)ccc1O | 1 | 1 | – | – |
| Clc1ccc(COC(Cn2ccnc2)c2ccc(Cl)cc2Cl)c(Cl)c1 (configuration not stated) [MICONAZOLE] | 1 | 1 | – | – |
| COc1cc(O)c2c(c1)O[C@H](c1ccc(O)cc1)CC2=O [SAKURANETIN] | 1 | 1 | – | – |
| CC(C)=CCCC(C)(O)CC(=O)c1cc(C(=O)O)ccc1O (configuration not stated) [CRASSINERVIC ACID] | 0.5 | 0.5 | – | – |
